In brackets after ≈: the same amount, converted by molar mass. Activity calls are given as the source filed them. No cut-off for these calls is given here.
Columns and labels:
Staphylococcus aureus = experiment: Antibacterial activity against Staphylococcus aureus ATCC 25825 after 24 hrs by twofold serial dilution method; type: functional; settings: ATCC 25825, 24 h
Bacillus subtilis = experiment: Antibacterial activity against Bacillus subtilis ATCC 451 after 24 hrs by twofold serial dilution method; type: functional; settings: ATCC 451, 24 h
[1] = tested on: Salmonella enterica subsp. enterica; experiment: Antibacterial activity against Salmonella typhi ATCC 24915 after 24 hrs by twofold serial dilution method; type: functional, Salmonella enterica subsp. enterica serovar Typhi; settings: ATCC 24915, 24 h
Escherichia coli [2] = experiment: Antibacterial activity against Escherichia coli ATCC 25835 after 24 hrs by twofold serial dilution method; type: functional; settings: ATCC 25835, 24 h
Klebsiella pneumoniae [3] = experiment: Antibacterial activity against Klebsiella pneumoniae ATCC 15490 after 24 hrs by twofold serial dilution method; type: functional; settings: ATCC 15490, 24 h
Cryptococcus neoformans = experiment: Antifungal activity against Cryptococcus neoformans ATCC 3312 after 72 to 96 hrs by twofold serial dilution method; type: functional
Candida albicans [4] = experiment: Antifungal activity against Candida albicans ATCC 3122 by twofold serial dilution method; type: functional
Rhizopus [5] = experiment: Antifungal activity against Rhizopus sp. ATCC 2915 after 72 to 96 hrs by twofold serial dilution method; type: functional
Aspergillus niger [6] = experiment: Antifungal activity against Aspergillus niger ATCC 598 after 72 to 96 hrs by twofold serial dilution method; type: functional
Aspergillus flavus [7] = experiment: Antifungal activity against Aspergillus flavus ATCC 485 at 200 ug/mL after 72 to 96 hrs by twofold serial dilution method; type: functional, organism-based
Aspergillus flavus [8] = experiment: Antifungal activity against Aspergillus flavus ATCC 485 after 72 to 96 hrs by twofold serial dilution method; type: functional
Klebsiella pneumoniae [9] = experiment: Antibacterial activity against Klebsiella pneumoniae ATCC 15490 at 200 ug/mL after 24 hrs by twofold serial dilution method; type: functional, organism-based
Candida albicans [10] = experiment: Antifungal activity against Candida albicans ATCC 3122 at 200 ug/mL by twofold serial dilution method; type: functional, organism-based
Escherichia coli [11] = experiment: Antibacterial activity against Escherichia coli ATCC 25835 at 200 ug/mL after 24 hrs by twofold serial dilution method; type: functional, organism-based
Aspergillus niger [12] = experiment: Antifungal activity against Aspergillus niger ATCC 598 at 200 ug/mL after 72 to 96 hrs by twofold serial dilution method; type: functional, organism-based
Rhizopus [13] = experiment: Antifungal activity against Rhizopus sp. ATCC 2915 at 200 ug/mL after 72 to 96 hrs by twofold serial dilution method; type: functional, organism-based
[14] = tested on: Salmonella enterica subsp. enterica; experiment: Antibacterial activity against Salmonella typhi ATCC 24915 at 200 ug/mL after 24 hrs by twofold serial dilution method; type: functional, organism-based; settings: Salmonella enterica subsp. enterica serovar Typhi

Compound	MIC (Staphylococcus aureus)	MIC (Bacillus subtilis)	MIC [1]	MIC (Escherichia coli [2])	MIC (Klebsiella pneumoniae [3])	MIC (Cryptococcus neoformans)	MIC (Candida albicans [4])	MIC (Rhizopus [5])	MIC (Aspergillus niger [6])	MIC (Aspergillus flavus [7])	MIC (Aspergillus flavus [8])	MIC (Klebsiella pneumoniae [9])	MIC (Candida albicans [10])	MIC (Escherichia coli [11])	MIC (Aspergillus niger [12])	MIC (Rhizopus [13])	MIC [14]
COc1cccc(C2NC(c3cccc(OC)c3)C3CCCC2C3=NNC(N)=S)c1 (stereo not given)	50 µg/mL (≈ 118 µM)	50 µg/mL (≈ 118 µM)	200 µg/mL (≈ 471 µM)	25 µg/mL (≈ 58.9 µM)	100 µg/mL (≈ 236 µM)	100 µg/mL (≈ 236 µM)	50 µg/mL (≈ 118 µM)	100 µg/mL (≈ 236 µM)	50 µg/mL (≈ 118 µM)	inactive	–	–	–	–	–	–	–
O=C1CS/C(=N\N=C2C3CCCC2C(c2cccc(F)c2)NC3c2cccc(F)c2)N1 (stereo not given)	100 µg/mL (≈ 227 µM)	50 µg/mL (≈ 114 µM)	6.25 µg/mL (≈ 14.2 µM)	100 µg/mL (≈ 227 µM)	–	12.5 µg/mL (≈ 28.4 µM)	6.25 µg/mL (≈ 14.2 µM)	6.25 µg/mL (≈ 14.2 µM)	100 µg/mL (≈ 227 µM)	–	50 µg/mL (≈ 114 µM)	inactive	–	–	–	–	–
NC(=S)NN=C1C2CCCC1C(c1cccc(F)c1)NC2c1cccc(F)c1 (stereo not given)	6.25 µg/mL (≈ 15.6 µM)	25 µg/mL (≈ 62.4 µM)	50 µg/mL (≈ 125 µM)	100 µg/mL (≈ 250 µM)	25 µg/mL (≈ 62.4 µM)	25 µg/mL (≈ 62.4 µM)	25 µg/mL (≈ 62.4 µM)	100 µg/mL (≈ 250 µM)	25 µg/mL (≈ 62.4 µM)	–	50 µg/mL (≈ 125 µM)	–	–	–	–	–	–
O=C1CS/C(=N\N=C2C3CCCC2C(c2ccc(Cl)cc2)NC3c2ccc(Cl)cc2)N1 (stereo not given)	6.25 µg/mL (≈ 13.2 µM)	25 µg/mL (≈ 52.8 µM)	6.25 µg/mL (≈ 13.2 µM)	100 µg/mL (≈ 211 µM)	50 µg/mL (≈ 106 µM)	12.5 µg/mL (≈ 26.4 µM)	25 µg/mL (≈ 52.8 µM)	6.25 µg/mL (≈ 13.2 µM)	25 µg/mL (≈ 52.8 µM)	–	100 µg/mL (≈ 211 µM)	–	–	–	–	–	–
COc1ccc(C2NC(c3ccc(OC)cc3)C3CCCC2C3=NNC(N)=S)cc1 (stereo not given)	25 µg/mL (≈ 58.9 µM)	50 µg/mL (≈ 118 µM)	200 µg/mL (≈ 471 µM)	50 µg/mL (≈ 118 µM)	100 µg/mL (≈ 236 µM)	50 µg/mL (≈ 118 µM)	–	200 µg/mL (≈ 471 µM)	200 µg/mL (≈ 471 µM)	–	100 µg/mL (≈ 236 µM)	–	inactive	–	–	–	–
O=C1CS/C(=N\N=C2C3CCCC2C(c2ccc(F)cc2)NC3c2ccc(F)cc2)N1 (stereo not given)	6.25 µg/mL (≈ 14.2 µM)	25 µg/mL (≈ 56.8 µM)	12.5 µg/mL (≈ 28.4 µM)	50 µg/mL (≈ 114 µM)	100 µg/mL (≈ 227 µM)	25 µg/mL (≈ 56.8 µM)	6.25 µg/mL (≈ 14.2 µM)	100 µg/mL (≈ 227 µM)	200 µg/mL (≈ 454 µM)	–	100 µg/mL (≈ 227 µM)	–	–	–	–	–	–
NC(=S)NN=C1C2CCCC1C(c1ccccc1Cl)NC2c1ccccc1Cl (stereo not given)	200 µg/mL (≈ 461 µM)	100 µg/mL (≈ 231 µM)	50 µg/mL (≈ 115 µM)	100 µg/mL (≈ 231 µM)	50 µg/mL (≈ 115 µM)	100 µg/mL (≈ 231 µM)	200 µg/mL (≈ 461 µM)	25 µg/mL (≈ 57.7 µM)	100 µg/mL (≈ 231 µM)	–	100 µg/mL (≈ 231 µM)	–	–	–	–	–	–
NC(=S)NN=C1C2CCCC1C(c1ccc(F)cc1)NC2c1ccc(F)cc1 (stereo not given)	50 µg/mL (≈ 125 µM)	25 µg/mL (≈ 62.4 µM)	12.5 µg/mL (≈ 31.2 µM)	–	100 µg/mL (≈ 250 µM)	25 µg/mL (≈ 62.4 µM)	50 µg/mL (≈ 125 µM)	100 µg/mL (≈ 250 µM)	100 µg/mL (≈ 250 µM)	–	6.25 µg/mL (≈ 15.6 µM)	–	–	inactive	–	–	–
O=C1CS/C(=N\N=C2C3CCCC2C(c2ccccc2)NC3c2ccccc2)N1 (stereo not given)	50 µg/mL (≈ 124 µM)	25 µg/mL (≈ 61.8 µM)	100 µg/mL (≈ 247 µM)	12.5 µg/mL (≈ 30.9 µM)	50 µg/mL (≈ 124 µM)	50 µg/mL (≈ 124 µM)	50 µg/mL (≈ 124 µM)	200 µg/mL (≈ 494 µM)	–	–	200 µg/mL (≈ 494 µM)	–	–	–	inactive	–	–
NC(=S)NN=C1C2CCCC1C(c1ccccc1)NC2c1ccccc1 (stereo not given)	50 µg/mL (≈ 137 µM)	100 µg/mL (≈ 274 µM)	200 µg/mL (≈ 549 µM)	100 µg/mL (≈ 274 µM)	200 µg/mL (≈ 549 µM)	100 µg/mL (≈ 274 µM)	200 µg/mL (≈ 549 µM)	–	200 µg/mL (≈ 549 µM)	–	200 µg/mL (≈ 549 µM)	–	–	–	–	inactive	–
NC(=S)NN=C1C2CCCC1C(c1ccc(Cl)cc1)NC2c1ccc(Cl)cc1 (stereo not given)	25 µg/mL (≈ 57.7 µM)	100 µg/mL (≈ 231 µM)	100 µg/mL (≈ 231 µM)	6.25 µg/mL (≈ 14.4 µM)	200 µg/mL (≈ 461 µM)	25 µg/mL (≈ 57.7 µM)	25 µg/mL (≈ 57.7 µM)	50 µg/mL (≈ 115 µM)	100 µg/mL (≈ 231 µM)	–	6.25 µg/mL (≈ 14.4 µM)	–	–	–	–	–	–
CN[C@@H]1[C@H](O[C@H]2[C@H](O[C@H]3[C@H](O)[C@@H](O)[C@H](N=C(N)N)[C@@H](O)[C@@H]3N=C(N)N)O[C@@H](C)[C@]2(O)C=O)O[C@@H](CO)[C@H](O)[C@H]1O [STREPTOMYCIN]	50 µg/mL (≈ 86 µM)	12.5 µg/mL (≈ 21.5 µM)	50 µg/mL (≈ 86 µM)	12.5 µg/mL (≈ 21.5 µM)	25 µg/mL (≈ 43 µM)	–	–	–	–	–	–	–	–	–	–	–	–
C[C@@H]1[C@H](O)[C@@H](C)/C=C/C=C/C=C/C=C/C=C/C=C/C=C/[C@H](O[C@@H]2O[C@H](C)[C@@H](O)[C@H](N)[C@@H]2O)C[C@@H]2O[C@](O)(C[C@@H](O)C[C@@H](O)[C@H](O)CC[C@@H](O)C[C@@H](O)CC(=O)O[C@H]1C)C[C@H](O)[C@H]2C(=O)O [AMPHOTERICIN B]	–	–	–	–	–	25 µg/mL (≈ 27.1 µM)	25 µg/mL (≈ 27.1 µM)	25 µg/mL (≈ 27.1 µM)	50 µg/mL (≈ 54.1 µM)	–	50 µg/mL (≈ 54.1 µM)	–	–	–	–	–	–
Cc1ccc(C2NC(c3ccc(C)cc3)C3CCCC2C3=NNC(N)=S)cc1 (stereo not given)	12.5 µg/mL (≈ 31.8 µM)	100 µg/mL (≈ 255 µM)	–	50 µg/mL (≈ 127 µM)	100 µg/mL (≈ 255 µM)	200 µg/mL (≈ 509 µM)	200 µg/mL (≈ 509 µM)	100 µg/mL (≈ 255 µM)	200 µg/mL (≈ 509 µM)	inactive	–	–	–	–	–	–	inactive
COc1cccc(C2NC(c3cccc(OC)c3)C3CCCC2C3=N/N=C2/NC(=O)CS2)c1 (stereo not given)	100 µg/mL (≈ 215 µM)	100 µg/mL (≈ 215 µM)	6.25 µg/mL (≈ 13.5 µM)	50 µg/mL (≈ 108 µM)	50 µg/mL (≈ 108 µM)	100 µg/mL (≈ 215 µM)	50 µg/mL (≈ 108 µM)	100 µg/mL (≈ 215 µM)	50 µg/mL (≈ 108 µM)	–	200 µg/mL (≈ 430 µM)	–	–	–	–	–	–
O=C1CS/C(=N/N=C2C3CCCC2C(c2ccccc2Cl)NC3c2ccccc2Cl)N1 (stereo not given)	100 µg/mL (≈ 211 µM)	100 µg/mL (≈ 211 µM)	50 µg/mL (≈ 106 µM)	25 µg/mL (≈ 52.8 µM)	–	100 µg/mL (≈ 211 µM)	50 µg/mL (≈ 106 µM)	6.25 µg/mL (≈ 13.2 µM)	25 µg/mL (≈ 52.8 µM)	–	50 µg/mL (≈ 106 µM)	inactive	–	–	–	–	–
COc1ccc(C2NC(c3ccc(OC)cc3)C3CCCC2C3=N/N=C2/NC(=O)CS2)cc1 (stereo not given)	6.25 µg/mL (≈ 13.5 µM)	50 µg/mL (≈ 108 µM)	100 µg/mL (≈ 215 µM)	100 µg/mL (≈ 215 µM)	25 µg/mL (≈ 53.8 µM)	50 µg/mL (≈ 108 µM)	100 µg/mL (≈ 215 µM)	200 µg/mL (≈ 430 µM)	100 µg/mL (≈ 215 µM)	inactive	–	–	–	–	–	–	–
Cc1ccc(C2NC(c3ccc(C)cc3)C3CCCC2C3=N/N=C2/NC(=O)CS2)cc1 (stereo not given)	25 µg/mL (≈ 57.8 µM)	25 µg/mL (≈ 57.8 µM)	100 µg/mL (≈ 231 µM)	50 µg/mL (≈ 116 µM)	25 µg/mL (≈ 57.8 µM)	100 µg/mL (≈ 231 µM)	100 µg/mL (≈ 231 µM)	50 µg/mL (≈ 116 µM)	–	–	25 µg/mL (≈ 57.8 µM)	–	–	–	inactive	–	–

From ChEMBL document CHEMBL1153594, “Design, synthesis and biological evaluation of novel 2-[(2,4-diaryl-3-azabicyclo[3.3.1]nonan-9-ylidene)hydrazono]-1,3-thiazolidin-4-ones as a new class of antimicrobial agents” (2009)
